Measured values taken from patent US20220125795A1, “THERAPEUTIC COMBINATIONS AND COMPOSITIONS FOR THE TREATMENT OF INFLAMMATORY BOWEL DISEASE” (RIJKSUNIVERSITEIT GRONINGEN, priority 2019, published 2022).

Tests used:
Format in all cases: in vivo, human
interleukin 2 = assay: Prospective clinical intervention study in CD patients: inflammatory biomarkers (interleukin 2); conditions: CD patients with thiopurine treatment; 100 mg riboflavin daily for 3 weeks
Experimental: (§1) In a prospective clinical intervention study, 70 CD patients were included and divided into two groups with (active) and without (quiescent) evidence of mucosal inflammation (defined by fecal calprotectin (FC) cut-off value: 200 μg/g). Patients received 100 mg riboflavin daily for 3 weeks. Clinical disease activity (Harvey-Bradshaw Index: HBI), inflammatory biomarkers (including interleukin 2) as well as fecal microbial composition (including pathogenic Enterobacteriaceae including E. coli) were analyzed before and after riboflavin intervention.

[1] = Prospective clinical intervention study in CD patients: clinical disease activity (Harvey-Bradshaw Index); conditions: 100 mg riboflavin daily for 3 weeks, before vs after
Experimental: as §1

[2] = tested on: Enterobacteriaceae including E. coli; assay: Prospective clinical intervention study in CD patients: fecal microbial composition; conditions: CD patients with thiopurine treatment; 100 mg riboflavin daily for 3 weeks
Experimental: as §1

Cc1cc2nc3c(=O)[nH]c(=O)nc-3n(C[C@H](O)[C@H](O)[C@H](O)CO)c2cc1C [riboflavin]
proinflammatory cytokine IL2 (interleukin 2): further reduction | clinical disease activity (HBI) ([1]; CD patients with mesalazine treatment): this was not the case (not as pronounced as) | clinical disease activity (HBI) ([1]; CD patients with thiopurine treatment (particularly quiescent disease)): further reduced clinical disease activity (HBI) | Enterobacteriaceae including E. coli (fecal) [2]: further reduction
